Test results reported in US20100190815A1, “HYPERTENSION-AMELIORATING AGENT” (KYOWA HAKKO BIO CO., LTD., priority 2006, published 2010).

Tested on: spontaneously hypertensive rats (SHRs)
Experiment: Systolic blood pressure by the tail-cuff method in spontaneously hypertensive rats, oral administration once daily for 29 days
Type: in vivo, rat
Conditions: for Systolic blood pressure compared with the 1st (vehicle) group: 5 mg/kg (2nd group), from Day 8 to the end of the test period; for Systolic blood pressure: male SHR/Izm rats, mean ± standard error, n=6
Description: The rats used were spontaneously hypertensive rats (SHRs). The systolic blood pressure levels of 18 male SHR/Izm rats (10 week olds; Japan SLC, Inc.) were measured on Day 1 of administration. The rats were divided into 3 groups of 6 rats in a manner such that the mean values of the groups were almost equivalent to one another. The groups were referred to as the 1st to the 3rd groups. A 0.5 w/v % methylcellulose aqueous solution was orally administered to the rats in the 1st group. A 0.5 w/v % methylcellulose aqueous solution containing pyrroloquinoline quinone disodium salt (hereinafter, referred to as PQQ disodium salt; Mitsubishi Gas Chemical Company, Inc.) suspended therein (1 mg/mL) was orally administered to the rats in the 2nd group. A 0.5 w/v % methylcellulose aqueous solution containing PQQ disodium salt suspended therein (4 mg/mL) was orally administered to the rats in the 3rd group. Oral administration was carried out in a volume of 5 mL/kg once daily for 29 days. The single dose of PQQ disodium salt was 5 mg/kg in the 2nd group and the same was 20 mg/kg in the 3rd group. On Days 1, 8, 15, 22, and 29 of administration, systolic blood pressure was measured before administration (24 hours after administration on the previous day) and 4 hours after administration of the PQQ disodium salt. Systolic blood pressure was measured by the tail-cuff method with the use of an unheated non-invasive blood pressure monitor for mice and rats (MK-2000, Muromachi Kikai Co., Ltd.). Measurement was carried out 5 times per instance. The mean value of three systolic blood pressure values obtained by excluding the highest value and the lowest value was determined to be the value for an individual rat. The value for each group was expressed as the mean value±standard error (n=6). A statistically significant difference was obtained at each measurement point by carrying out one-way analysis of variance. When the significance was confirmed by one-way analysis of variance, a parametric Dunnett's multiple comparison test was carried so that a significant difference between the 2nd and the 1st group and between the 3rd group and the 1st group were obtained. In addition, in a case in which there was a significance level (p value) of less than 0.05, it was determined that there was a significant difference.

O=C(O)c1cc(C(=O)O)c2c(n1)C(=O)C(=O)c1cc(C(=O)O)[nH]c1-2.[Na].[Na] [PQQ disodium salt, pyrroloquinoline quinone disodium salt]
Systolic blood pressure compared with the 1st (vehicle) group (4 hours after administration): lower than that for the 1st group | Systolic blood pressure compared with the 1st (vehicle) group (before administration): lower than that for the 1st group | Systolic blood pressure compared with the 2nd (5 mg/kg) group (20 mg/kg (3rd group), 4 hours after administration): lower than that for the 2nd group | Systolic blood pressure compared with the 1st (vehicle) group, significance (20 mg/kg (3rd group), 4 hours after administration on Day 29, Dunnett's test, p < 0.05): significantly lower than that for the 1st group | Systolic blood pressure compared with the 2nd (5 mg/kg) group (20 mg/kg (3rd group), before administration): lower than that for the 2nd group | Hypertension-ameliorating effect in hypertension rats (overall conclusion) (SHR rats, 5 and 20 mg/kg oral once daily for 29 days): blood pressure-reducing effects, namely, hypertension-ameliorating effects, were observed | Systolic blood pressure (5 mg/kg oral once daily (2nd group), Day 1, 4 hours after administration): 172 ± 4 mmHg | Systolic blood pressure (5 mg/kg oral once daily (2nd group), Day 1, before administration (baseline)): 172 ± 3 mmHg | Systolic blood pressure (5 mg/kg oral once daily (2nd group), Day 8, 4 hours after administration): 175 ± 3 mmHg | Systolic blood pressure (5 mg/kg oral once daily (2nd group), Day 8, before administration (24 hours after previous dose)): 177 ± 3 mmHg | Systolic blood pressure (5 mg/kg oral once daily (2nd group), Day 15, 4 hours after administration): 184 ± 3 mmHg | Systolic blood pressure (5 mg/kg oral once daily (2nd group), Day 15, before administration (24 hours after previous dose)): 185 ± 3 mmHg | Systolic blood pressure (5 mg/kg oral once daily (2nd group), Day 22, 4 hours after administration): 189 ± 3 mmHg | Systolic blood pressure (5 mg/kg oral once daily (2nd group), Day 22, before administration (24 hours after previous dose)): 189 ± 3 mmHg | Systolic blood pressure (5 mg/kg oral once daily (2nd group), Day 29, 4 hours after administration): 190 ± 1 mmHg | Systolic blood pressure (5 mg/kg oral once daily (2nd group), Day 29, before administration (24 hours after previous dose)): 190 ± 1 mmHg | Systolic blood pressure (20 mg/kg oral once daily (3rd group), Day 1, 4 hours after administration): 171 ± 3 mmHg | Systolic blood pressure (20 mg/kg oral once daily (3rd group), Day 1, before administration (baseline)): 172 ± 3 mmHg | Systolic blood pressure (20 mg/kg oral once daily (3rd group), Day 8, 4 hours after administration): 171 ± 2 mmHg | Systolic blood pressure (20 mg/kg oral once daily (3rd group), Day 8, before administration (24 hours after previous dose)): 174 ± 2 mmHg | Systolic blood pressure (20 mg/kg oral once daily (3rd group), Day 15, 4 hours after administration): 180 ± 3 mmHg | Systolic blood pressure (20 mg/kg oral once daily (3rd group), Day 15, before administration (24 hours after previous dose)): 182 ± 3 mmHg | Systolic blood pressure (20 mg/kg oral once daily (3rd group), Day 22, 4 hours after administration): 184 ± 3 mmHg | Systolic blood pressure (20 mg/kg oral once daily (3rd group), Day 22, before administration (24 hours after previous dose)): 184 ± 3 mmHg | Systolic blood pressure (20 mg/kg oral once daily (3rd group), Day 29, 4 hours after administration, p < 0.05 relative to the 1st (vehicle) group): 184 ± 3 mmHg | Systolic blood pressure (20 mg/kg oral once daily (3rd group), Day 29, before administration (24 hours after previous dose)): 186 ± 3 mmHg
